Results reported in publication PMC8720025, “PTHG2 Reduces Bone Loss in Ovariectomized Mice by Directing Bone Marrow Mesenchymal Stem Cell Fate” (Stem Cells International, 2021).

Tests used:
[1] = tested on: CREB phosphorylation in BMSCs; assay: Western blotting of CREB phosphorylation (cAMP-PKA signaling); type: cell-based, C57/BL6 mice
Experimental: The unstimulated group was the control group. After the stimulation, the cells were digested, and RIPA cell lysate (containing protein phosphatase inhibitors) was added and centrifuged. 30 μg protein was separated with SDS-PAGE. The proteins were then shifted to the nitrocellulose membrane using a trans-Blot Turbo Transfer System (Bio-Rad Laboratories, Hercules, CA, USA). Membrane was sealed with 5% bovine serum albumin (BSA) for 1 h. Membrane and specific primary antibody were incubated overnight at 4°C. Then, membrane was disposed with fluorescently labeled secondary Goat anti-Rabbit IgG Antibody (Dylight) for 1 hour at 25°C. The protein bands were imaged with a Bio-Rad visual imaging system (Bio-Rad Laboratories, Hercules, CA), and the relative protein expression was analyzed by Image J.

[2] = CD spectroscopy, peptide helicity; type: physicochemical; details: 50 μM peptide in 50.0% TFE water solution, 25°C (legend: 20°C), from [θ]222
Experimental: CD parameters was collected on a JASCO J-820 spectropolarimeter (JASCO Corp., Ltd). […] The sample ellipticity data were collected at 25°C and 195 nm. The helicity of the polypeptide is calculated by the following formula [36, 37]. (1) α=θ222/ θmax×100%.
[θ]222 was the molar ellipticity at the absorption wavelength of 222 nm, [θ]max = ([…] + 250 T) (1 − K/N), K = 4, and N was the number of amino acids of the polypeptide (n = 34).

[3] = tested on: OVX-induced bone loss in mice; assay: OVX-induced bone loss model (micro-CT, histology, qPCR); type: in vivo, C57/BL6 mice
BMSCs [4] = assay: CCK-8 cell viability assay; type: cell-based, C57/BL6 mice; details: concentrations below 100 μM, 48 h and 96 h, absorbance 450 nm
Experimental: BMSCs were extracted from the femoral and tibial marrow cavity of 5-week-old C57/BL6 mice and cultured in mouse bone marrow mesenchymal stem cell medium for 2-3 days. The new culture medium was changed until the adherent cells grew 95% confluence and cell passage, or subsequent experiments were carried out. The cell growth environment was 37°C, 5% CO2, and […].
Cell viability of BMSCs were tested using the CCK-8 (Dojindo Molecular Technology, Kumamoto, Japan) according to instruction. BMSCs were inoculated in a 96-well plate (5 × 10^3 cells per well) and hatched overnight. […] Then, cells were disposed with 10 μl of CCK-8 reagent for 2 hours. After incubation, the absorbance was measured at 450 nm in a Biotek Cytation 5 System (Biotek Instruments, Vermont, USA).

[5] = tested on: heart, liver, spleen, lung, and kidney of mice; assay: In vivo tissue toxicity test (H&E staining of organs); details: H&E staining after administration
Experimental: (a) BMSC cell viability as assessed by CCK-8 assay following treatment without or with indicated concentrations of PTHG2 for 48 and 96 h. […] (c) The relative expression of Cebp-α and Perilipin following PTHG2 treatment was quantified by real-time PCR. (d) After pretreatment with H89, BMSC differentiated and stained with Alizarin red for 21 days. Supplementary Material 2: H&E staining of the heart, liver, spleen, lung, and kidney after administration of normal saline, PTH, and PTHG2. Click here for additional data file.

BMSCs [6] = assay: Cell cycle analysis by PI staining and flow cytometry; type: cell-based, C57/BL6 mice; details: PI staining, flow cytometry
Experimental: Cells were cultured with 10 μM BrdU for one hour and fixed in 70% ethanol at -20 C. After washing with phosphate/citric buffer (40 ml Na2HPO4 with 4 ml 0.1 M citric acid), the cells were incubated with anti-BrdU antibody for one hour, then stained with propidium iodide (PI). For PI/RNase staining, cells were incubated with 0.5 ml of PI/RNAse staining buffer (BD Pharmingen) at 25°C for 15 minutes, then analyzed by flow cytometry.

BMSCs [7] = assay: In vitro osteogenesis assay of BMSCs; type: cell-based, C57/BL6 mice
BMSCs [8] = assay: In vitro adipogenesis assay of BMSCs; type: cell-based, C57/BL6 mice
[9] = 20/40 μg·kg−1 intraperitoneal daily for 8 weeks, compared with OVX group

O=S(=O)(NCCNC/C=C/c1ccc(Br)cc1)c1cccc2cnccc12 [H89-2HCL, H89-2HCl, reference compound]
phosphorylation level of CREB ([1]; BMSCs pretreated with H89-2HCl for 1 hour, then stimulated with PTH (1-34)/PTHG2 for 6 hours): not increased

CC[C@H](C)[C@H](NC(=O)[C@H](CCC(=O)O)NC(=O)[C@H](CO)NC(=O)[C@@H](NC(=O)[C@@H](N)CO[C@@H]1O[C@H](CO)[C@@H](O)[C@H](O)[C@H]1NC(C)=O)C(C)C)C(=O)N[C@@H](CCC(N)=O)C(=O)N[C@@H](CC(C)C)C(=O)N[C@@H](CCSC)C(=O)N[C@@H](Cc1c[nH]cn1)C(=O)N[C@@H](CC(N)=O)C(=O)N[C@@H](CC(C)C)C(=O)NCC(=O)N[C@@H](CCCCN)C(=O)N[C@@H](Cc1c[nH]cn1)C(=O)N[C@@H](CC(C)C)C(=O)N[C@@H](CC(N)=O)C(=O)N[C@@H](CO)C(=O)N[C@@H](CCSC)C(=O)N[C@@H](CCC(=O)O)C(=O)N[C@@H](CCCNC(=N)N)C(=O)N[C@H](C(=O)N[C@@H](CCC(=O)O)C(=O)N[C@@H](Cc1c[nH]c2ccccc12)C(=O)N[C@@H](CC(C)C)C(=O)N[C@@H](CCCNC(=N)N)C(=O)N[C@@H](CCCCN)C(=O)N[C@@H](CCCCN)C(=O)N[C@@H](CC(C)C)C(=O)N[C@@H](CCC(N)=O)C(=O)N[C@@H](CC(=O)O)C(=O)N[C@H](C(=O)N[C@@H](Cc1c[nH]cn1)C(=O)N[C@@H](CC(N)=O)C(=O)N[C@@H](Cc1ccccc1)C(=O)O)C(C)C)C(C)C [PTHG2]
helicity [2]: 39.1%
number of FABP4-positive cells (IHC, distal femur) [3]: reduced
OCN positivity, immunofluorescence of distal femur ([3]; 8 weeks of treatment): significant increase
number of lining cells on the trabecular bone surface (H&E) ([3]; 8 weeks of treatment, compared to the OVX group, n = 6 per group): significantly increased
expression of OCN gene in bone mRNA (qPCR) ([3]; bone of the upper limb, compared with the OVX group): significantly increased
inhibition of adipocyte generation (Fabp4 gene, qPCR) ([3]; compared with PTH (1-34)): same effect as PTH (1-34)
number of adipocytes (vacuoles/cavitation) in H&E staining ([3]; metaphysis, compared with OVX group): significantly reduced
toxicity to BMSCs (CCK-8) (BMSCs [4]): no toxicity
tissue toxicity to heart, liver, spleen, lung, and kidney [5]: no toxicity
effect on cell cycle (BMSCs [6]): no effect
osteogenic differentiation activity of BMSCs (ALP staining) (BMSCs [7]; 10 nM, 6 h/day, osteogenic medium, 7 days): significantly enhanced
expression of Runx2 gene (qPCR) (BMSCs [7]; 10 nM, osteogenic differentiation, compared with control group): higher than that in control group
ALP and RUNX2 protein levels (Western blotting) (BMSCs [7]; osteogenic differentiation, 3, 7, and 10 days, compared to the control group): significantly increased
number of adipocytes (oil red staining) (BMSCs [8]; adipogenic conditioned medium, 21 days, compared with the control): did not increase
adipogenic gene protein expression (Fabp4/PPARɣ/Adiponectin) (BMSCs [8]; adipogenic differentiation, compared with control group): resemble to that of the control group
phosphorylation level of CREB ([1]; BMSCs starved 1 hour, stimulated with 10 μM peptide for 6 hours, without H89-2HCl): increased

CC[C@H](C)[C@H](NC(=O)[C@H](CCC(=O)O)NC(=O)[C@H](CO)NC(=O)[C@@H](NC(=O)[C@@H](N)CO)C(C)C)C(=O)N[C@@H](CCC(N)=O)C(=O)N[C@@H](CC(C)C)C(=O)N[C@@H](CCSC)C(=O)N[C@@H](Cc1c[nH]cn1)C(=O)N[C@@H](CC(N)=O)C(=O)N[C@@H](CC(C)C)C(=O)NCC(=O)N[C@@H](CCCCN)C(=O)N[C@@H](Cc1c[nH]cn1)C(=O)N[C@@H](CC(C)C)C(=O)N[C@@H](CC(N)=O)C(=O)N[C@@H](CO)C(=O)N[C@@H](CCSC)C(=O)N[C@@H](CCC(=O)O)C(=O)N[C@@H](CCCNC(=N)N)C(=O)N[C@H](C(=O)N[C@@H](CCC(=O)O)C(=O)N[C@@H](Cc1c[nH]c2ccccc12)C(=O)N[C@@H](CC(C)C)C(=O)N[C@@H](CCCNC(=N)N)C(=O)N[C@@H](CCCCN)C(=O)N[C@@H](CCCCN)C(=O)N[C@@H](CC(C)C)C(=O)N[C@@H](CCC(N)=O)C(=O)N[C@@H](CC(=O)O)C(=O)N[C@H](C(=O)N[C@@H](Cc1c[nH]cn1)C(=O)N[C@@H](CC(N)=O)C(=O)N[C@@H](Cc1ccccc1)C(=O)O)C(C)C)C(C)C [PTH (1-34), Teriparatide, reference compound]
helicity [2]: 38.5%
bone trabeculae number (Tb. N), micro-CT of femur [3, 9]: significantly increased
bone volume fraction (BV/TV), micro-CT of femur [3, 9]: significantly increased
